Experimental data from patent US4670444A, “7-amino-1-cyclopropyl-4-oxo-1, 4-dihydro-quinoline-and naphthyridine-3-carboxylic acids and antibacterial agents containing these compounds” (Bayer Aktiengesellschaft, priority 1980, dated 1987).
≈ marks a conversion by molar mass, not a printed value. Read-outs that look alike come from different tables or passages of the source.

Assays:
Type in all cases: cell-based
[1] = test system: Staphylococcus aureus 133; assay: Agar dilution test, DST medium; conditions: 1-2 × 10^3 germs/plate
Source text: (§2) DST (dexhase sensitivity test) medium; 1-2 × 10^3 germs/plate

E. coli A 261 = assay: Agar dilution test, DST medium; conditions: 1-2 × 10^3 germs/plate
Source text: as §2

E. coli Neum. = assay: Agar dilution test, DST medium; conditions: 1-2 × 10^3 germs/plate
Source text: as §2

Klebsiella 8085 = assay: Agar dilution test, DST medium; conditions: 1-2 × 10^3 germs/plate
Source text: as §2

Proteus 1017 = assay: Agar dilution test, DST medium; conditions: 1-2 × 10^3 germs/plate
Source text: as §2

Pseudomonas aeruginasa = assay: Agar dilution test, DST medium; conditions: 1-2 × 10^3 germs/plate
Source text: as §2

Escherichia coli 103400 = assay: Agar dilution test, Denley multipoint inoculation method
Source text: (§1) | ^x Denley multipoint inoculation method

Escherichia coli 455/7 = assay: as above
Source text: as §1

Escherichia coli T 7 = assay: as above; conditions: T7, read-out: Minimum inhibitory concentrations in an agar dilution test
Source text: as §1

Klebsiella 63 = assay: as above
Source text: as §1

Proteus 8228 = assay: as above; conditions: read-out: Minimum inhibitory concentrations in an agar dilution test
Source text: as §1

Pseudomonas 7167 = assay: as above; conditions: read-out: Minimum inhibitory concentrations in an agar dilution test
Source text: as §1

Salmonella 683 = assay: as above; conditions: read-out: Minimum inhibitory concentrations in an agar dilution test
Source text: as §1

[2] = Escherichia coli 103400, Denley multipoint inoculation method, read-out: Minimum inhibitory concentrations in an agar dilution test
[3] = Escherichia coli 455/7, Denley multipoint inoculation method, read-out: Minimum inhibitory concentrations in an agar dilution test
[4] = Klebsiella 63, Denley multipoint inoculation method, read-out: Minimum inhibitory concentrations in an agar dilution test
[5] = Proteus 8228, Denley multipoint inoculation method

Row | SMILES | antibacterial action in agar dilution test [1] | antibacterial action in agar dilution test (E. coli A 261) | antibacterial action in agar dilution test (E. coli Neum.) | antibacterial action in agar dilution test (Klebsiella 8085) | antibacterial action in agar dilution test (Proteus 1017) | antibacterial action in agar dilution test (Pseudomonas aeruginasa) | MIC (Escherichia coli 103400; [2]) | MIC (Escherichia coli 455/7; [3]) | MIC (Escherichia coli T 7) | MIC (Klebsiella 63; [4]) | MIC (Proteus 8228; [5]) | MIC (Pseudomonas 7167) | MIC (Salmonella 683) | MIC (Escherichia coli 103400; Escherichia coli, 103400, read-out: Minimum inhibitory concentrations in an agar dilution test) | MIC (Escherichia coli 455/7; Escherichia coli, 455/7, read-out: Minimum inhibitory concentrations in an agar dilution test) | MIC (Klebsiella 63; Klebsiella, 63, read-out: Minimum inhibitory concentrations in an agar dilution test) | MIC (Proteus 8228)
1 | O=C(O)c1cn(C2CC2)c2cc(N3CCNCC3)c(F)cc2c1=O [1-cyclopropyl-6-fluoro-1,4-dihydro-4-oxo-7-piperazino-quinoline-3-carboxylic acid] | 0.25-0.5 | 0.06 | 0.06 | 0.06 | 0.03 | 0.5 | – | – | – | – | – | – | – | – | – | – | –
2 | CCn1cc(C(=O)O)c(=O)c2cc(F)c(N3CCNCC3)cc21 | 1 | 0.125 | 0.25 | 0.25 | 0.06 | 1 | – | – | – | – | – | – | – | – | – | – | –
3 | O=C(O)c1cn(C2CC2)c2cc(N3CCNCC3)ncc2c1=O | 8 | 1 | 1 | 1 | 0.5 | 4 | – | – | – | – | – | – | – | – | – | – | –
4 | CN1CCN(c2cc3c(cn2)c(=O)c(C(=O)O)cn3C2CC2)CC1 [Example 1, 7-(4-Methylpiperazino)-1-cyclopropyl-4-oxo-1,4-dihydro-1,6-naphthyridine-3-carboxylic acid] | – | – | – | – | – | – | 0.25 µg/mL (≈ 0.761 µM) | 128 µg/mL (≈ 390 µM) | 0.25 µg/mL (≈ 0.761 µM) | 1 µg/mL (≈ 3.05 µM) | 2 µg/mL (≈ 6.09 µM) | 8 µg/mL (≈ 24.4 µM) | 0.5 µg/mL (≈ 1.52 µM) | – | – | – | –
5 | CCn1cc(C(=O)O)c(=O)c2cnc(N3CCNCC3)nc21 [Pipemidic acid, 2-piperazino-8-ethyl-5-oxo-5,8-dihydropyrido 2,3-d pyrimidine-6-carboxylicacid] | – | – | – | – | – | – | 1 µg/mL (≈ 3.3 µM) | 128 µg/mL (≈ 422 µM) | 2 µg/mL (≈ 6.59 µM) | 2 µg/mL (≈ 6.59 µM) | 4 µg/mL (≈ 13.2 µM) | 16 µg/mL (≈ 52.7 µM) | 2 µg/mL (≈ 6.59 µM) | – | – | – | –
6 | CCn1cc(C(=O)O)c(=O)c2ccc(C)nc21 [Nalidixic acid, 1-ethyl-7-methyl-1,8-naphthyrid-4-one-3-carboxylic acid] | – | – | – | – | – | – | – | – | 1 µg/mL (≈ 4.31 µM) | – | – | 64 µg/mL (≈ 276 µM) | 4 µg/mL (≈ 17.2 µM) | 2 µg/mL (≈ 8.61 µM) | 256 µg/mL (≈ 1100 µM) | 4 µg/mL (≈ 17.2 µM) | 8 µg/mL (≈ 34.4 µM)
